Test results taken from patent US20040039014A1, “Methods and compounds for treating depression and other disorders” (NPS Pharmaceuticals, Inc., priority 1998, published 2004).
Where a name gives a salt, the structure may show the parent alone. Read-outs that look alike come from different tables or passages of the source.

Legend:
NMDA receptor = target: T1, NMDA receptor; test: [3H]MK-801 binding assay (rat cortex synaptic plasma membranes); details: read-out: [3H]MK-801 data IC50, Table I
T1 construct: rat cortex membranes
Experimental: Synaptic plasma membranes (SPMs) from rat cortex were prepared as follows. Isolated cerebral cortices from male and female rats were purchased from Pel-Freez (Rogers, Ariz.) in bulk, and stored at −80° C. The cortices from 25 rats were thawed and pooled. […] The resulting homogenates were centrifuged for 10 min at 1,000×g in a T865 rotor, UltraPro80 Sorvall Centrifuge. The supernatant was removed and subsequently centrifuged at 30,000×g for 30 min. […] Membranes were washed by re-suspension in 500 ml of 5 mM K-EDTA (pH 7.0), incubated at 32° C. for 30 min with stirring, and centrifuged at 100,000×g for 30 min. The final pellet was resuspended in 60 ml of […] K-EDTA (pH 7.0) and stored in aliquots at −80° C. The extensive washing procedure utilized in this assay was designed to minimize the concentrations of glutamate and glycine (co-agonists at the NMDA receptor-ionophore complex) present in the membrane preparation.
On the day of assay, aliquots of SPM were thawed and resuspended in 75 vols of 5 mM K-EDTA, pH 7.0. SPM were centrifuged at 100,000×g for 30 min at 4° C.
The SPM pellet was resuspended in assay buffer (30 mM EPPS, 1 mM K-EDTA, pH 7.0) by polytron. […] Binding was started by the addition of the tissue homogenate. The assay was terminated by the addition of 4 ml ice-cold buffer, followed by filtration over glass-fiber filters (Schleicher & Schuell No. 30) on a Millipore 12-well filtration manifold. Filters were washed with another 3 ×4 ml ice-cold buffer (pH 7.0). Radioactivity on the filters was measured using Fisherbrand Scinti-Safe scintillation cocktail. Samples were shaken for 45-60 min on a shaker platform to solubilize the radioactivity. Counting for ^3H was performed in a Beckman 6000IC LS Scintillation Counter for 4 min per sample.

[1] = target: T2, serotonin transporter site (Rattus norvegicus, UniProt P31652); test: Serotonin reuptake inhibition assay ([3H]citalopram binding, rat forebrain membranes); details: Table I; for inhibition at 0.1 µM: @ 100 nM (top number); for inhibition at 0.1 µM / inhibition at 10 µM: read-out: 5-HT Uptake mean % inhibition; for inhibition at 10 µM: @ 10.0 μM (bottom number); for Ki: read-out: 5-HT Uptake Ki
T2 construct: tissue NovaScreen (performed the assay); host or cells: rat forebrain membranes
Experimental: (§1) Monoamine Transporter Minding Assays
(§2) Monoamine transporter binding assays (reuptake inhibition assays) were performed by NovaScreen using standard radioligand binding assays. The transporter binding assays are described briefly below:
Serotonin Reuptake Inhibition Assay
Rat forebrain membranes were incubated with 0.7 nM [^3H] citalopram, N-methyl, (70-87 Ci/mmol)in 50 mM Tris-HCl (pH 7.4), 120 mM NaCl, and 5 mM KCl at 25° C. for 60 minutes. […] Reactions were terminated by rapid vacuum filtration onto glass fiber filters.

[2] = target: T3, norepinephrine transporter site (Rattus norvegicus, UniProt Q63380); test: Norepinephrine reuptake inhibition assay ([3H]nisoxetine binding, rat forebrain membranes); details: for inhibition at 0.1 µM / inhibition at 10 µM: read-out: NE Uptake mean % inhibition; for Ki: read-out: NE Uptake Ki
T3 construct: tissue NovaScreen (performed the assay); host or cells: rat forebrain membranes
Experimental: as §1, §2
Norepinephrine Reuptake Inhibition Assay
Reactions were terminated by rapid vacuum filtration onto glass fiber filters.

[3] = target: T4, dopamine transporter site (Cavia porcellus, UniProt H0WCX4); test: Dopamine reuptake inhibition assay ([3H]WIN 35428 binding, guinea pig striatal membranes); details: for inhibition at 0.1 µM / inhibition at 10 µM: read-out: DA Uptake mean % inhibition; for Ki: read-out: DA Uptake Ki
T4 construct: tissue NovaScreen (performed the assay); host or cells: guinea pig striatal membranes
Experimental: as §1, §2
Dopamine Reuptake Inhibition Assay:
Reactions were terminated by rapid vacuum filtration onto glass fiber filters. Bound radioactivity was determined using liquid scintillation spectrometry and experimental values were compared to control values to determine binding to the dopamine transporter site based on Madras, et al., Molec.

[4] = @ 10.0 μM (bottom number), Table I

T3 sequence (Q63380 1-617): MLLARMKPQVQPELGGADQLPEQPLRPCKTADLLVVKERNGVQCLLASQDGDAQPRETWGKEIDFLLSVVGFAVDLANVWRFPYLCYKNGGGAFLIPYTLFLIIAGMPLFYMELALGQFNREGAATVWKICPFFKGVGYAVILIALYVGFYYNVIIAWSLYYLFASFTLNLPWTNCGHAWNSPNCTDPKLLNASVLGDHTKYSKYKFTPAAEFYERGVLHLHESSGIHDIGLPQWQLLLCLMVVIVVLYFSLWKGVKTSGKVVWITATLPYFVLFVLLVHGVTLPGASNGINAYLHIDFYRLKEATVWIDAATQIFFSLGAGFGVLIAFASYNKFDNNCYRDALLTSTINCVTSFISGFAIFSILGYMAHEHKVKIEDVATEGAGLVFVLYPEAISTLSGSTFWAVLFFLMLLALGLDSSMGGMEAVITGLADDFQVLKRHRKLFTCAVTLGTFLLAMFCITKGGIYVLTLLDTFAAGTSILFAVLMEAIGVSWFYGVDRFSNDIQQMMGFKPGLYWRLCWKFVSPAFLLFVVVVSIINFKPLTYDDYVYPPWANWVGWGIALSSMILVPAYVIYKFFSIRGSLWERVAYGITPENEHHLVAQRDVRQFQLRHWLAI
T2 sequence (P31652 whole entry): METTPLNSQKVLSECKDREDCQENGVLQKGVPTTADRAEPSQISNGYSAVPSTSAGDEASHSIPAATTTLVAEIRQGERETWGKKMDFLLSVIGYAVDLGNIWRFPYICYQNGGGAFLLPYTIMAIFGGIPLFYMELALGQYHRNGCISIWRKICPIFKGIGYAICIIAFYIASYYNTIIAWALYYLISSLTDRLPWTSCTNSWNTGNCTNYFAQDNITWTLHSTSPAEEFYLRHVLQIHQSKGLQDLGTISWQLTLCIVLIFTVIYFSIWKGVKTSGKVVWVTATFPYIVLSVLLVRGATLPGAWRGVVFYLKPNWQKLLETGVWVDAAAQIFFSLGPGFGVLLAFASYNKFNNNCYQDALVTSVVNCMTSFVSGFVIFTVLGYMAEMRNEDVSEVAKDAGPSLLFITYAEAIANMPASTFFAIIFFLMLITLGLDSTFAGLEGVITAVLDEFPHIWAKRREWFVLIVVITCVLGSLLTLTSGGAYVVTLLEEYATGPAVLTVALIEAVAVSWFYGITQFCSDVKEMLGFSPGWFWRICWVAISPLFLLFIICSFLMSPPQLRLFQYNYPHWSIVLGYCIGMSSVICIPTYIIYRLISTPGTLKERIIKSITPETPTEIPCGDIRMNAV
T4 sequence (H0WCX4 1-619): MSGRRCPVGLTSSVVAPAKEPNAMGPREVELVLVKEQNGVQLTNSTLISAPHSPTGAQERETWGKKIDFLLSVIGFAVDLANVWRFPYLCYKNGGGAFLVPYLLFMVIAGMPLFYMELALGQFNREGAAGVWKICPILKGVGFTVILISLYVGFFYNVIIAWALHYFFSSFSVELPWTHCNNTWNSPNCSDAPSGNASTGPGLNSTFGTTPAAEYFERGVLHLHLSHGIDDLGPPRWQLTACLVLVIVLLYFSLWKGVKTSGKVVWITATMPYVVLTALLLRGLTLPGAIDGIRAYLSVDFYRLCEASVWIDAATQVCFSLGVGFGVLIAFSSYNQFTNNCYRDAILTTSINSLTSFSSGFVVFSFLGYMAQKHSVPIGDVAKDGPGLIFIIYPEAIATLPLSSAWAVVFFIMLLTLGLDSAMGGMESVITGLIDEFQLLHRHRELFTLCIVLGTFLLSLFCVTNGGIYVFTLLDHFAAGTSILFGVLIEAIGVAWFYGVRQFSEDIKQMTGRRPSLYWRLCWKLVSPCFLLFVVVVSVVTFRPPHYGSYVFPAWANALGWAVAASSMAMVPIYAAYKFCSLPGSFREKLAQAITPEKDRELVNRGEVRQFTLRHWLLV

With CC(CN)C(c1cccc(Cl)c1)c1cccc(Cl)c1 (centres unmarked) [Compound 46] the IC50 (NMDA receptor) was 5200 nM, the inhibition at 0.1 µM [1] was 10.4% and the inhibition at 10 µM [1] was 75.4%. For the same molecule, the inhibition at 0.1 µM [2] was 7.4%, the inhibition at 10 µM [2] was 64% and the inhibition at 0.1 µM [3] was 40.2%. It also gave an inhibition at 10 µM [3] of 97.1%.
For Cc1ccc(F)cc1C(CCN)c1cc(F)ccc1C [Compound 58], the IC50 (NMDA receptor) was 203 nM, the inhibition at 0.1 µM [1] was 27.2% and the inhibition at 10 µM [1] was 95.2%. For the same molecule, the inhibition at 0.1 µM ([2]; @ 100 nM (top number), Table I) was 1.3%, the inhibition at 10 µM [2, 4] was 66.6% and the inhibition at 0.1 µM ([3]; @ 100 nM (top number), Table I) was 0%. It also gave an inhibition at 10 µM [3, 4] of 45.2%.
CCNCCC(c1cccc(F)c1)c1cccc(F)c1 [Compound 59] was tested, and the IC50 (NMDA receptor) was 453 nM, the inhibition at 0.1 µM [1] was 14.3% and the inhibition at 10 µM [1] was 85.7%. It also gave an inhibition at 0.1 µM ([2]; @ 100 nM (top number), Table I) of 7.4%, an inhibition at 10 µM [2, 4] of 50.6% and an inhibition at 0.1 µM ([3]; @ 100 nM (top number), Table I) of 1.6%. For the same molecule, the inhibition at 10 µM [3, 4] was 77.6%.
N[C@H]1CCCC1C(c1cccc(F)c1)c1cccc(F)c1 (some centres unmarked) [Compound 63] gave an IC50 (NMDA receptor) of 245 nM, an inhibition at 0.1 µM [1] of 13.4% and an inhibition at 10 µM [1] of 84.6%. For the same molecule, the inhibition at 0.1 µM ([2]; @ 100 nM (top number), Table I) was 6.8%, the inhibition at 10 µM [2, 4] was 76.2% and the inhibition at 0.1 µM ([3]; @ 100 nM (top number), Table I) was 64.3%. It also gave an inhibition at 10 µM [3, 4] of 97.8%.
Molecule N[C@@H]1CCCC1C(c1cccc(F)c1)c1cccc(F)c1 (some centres unmarked) [Compound 64] has an IC50 (NMDA receptor) of 851 nM, a Ki [1] of 252 nM and a Ki ([2]; Table I) of 508 nM. The Ki ([3]; Table I) was 119 nM.
Cc1ccccc1C(CCN)c1ccccc1C [Compound 65] gave an IC50 (NMDA receptor) of 2000 nM, a Ki [1] of 127 nM and a Ki ([3]; Table I) of 22000 nM.
Work on CNC[C@H](C)C(c1cccc(F)c1)c1cccc(F)c1 [Compound 66] yielded an IC50 (NMDA receptor) of 1200 nM, an inhibition at 0.1 µM [1] of 6.1% and an inhibition at 10 µM [1] of 67.5%. It also gave an inhibition at 0.1 µM ([2]; @ 100 nM (top number), Table I) of 4.2%, an inhibition at 10 µM [2, 4] of 36.5% and an inhibition at 0.1 µM ([3]; @ 100 nM (top number), Table I) of 4.4%. The inhibition at 10 µM [3, 4] was 92.8%.
CN[C@@H](C)CC(c1cccc(F)c1)c1cccc(F)c1 [Compound 69] was tested, and the IC50 (NMDA receptor) was 366 nM.
CNCCC(c1ccccc1)c1cccc(F)c1 (centres unmarked) [Compound 108] showed an IC50 (NMDA receptor) of 942 nM.
In the case of NCCC(Oc1ccccc1)c1cccc(F)c1 (centres unmarked) [Compound 118], the IC50 (NMDA receptor) is reported as 240 nM, the Ki [1] is reported as 131 nM and the Ki ([3]; Table I) is reported as 4100 nM.
NCCC(Oc1cccc(F)c1)c1cccc(F)c1 (centres unmarked) [Compound 119, 3-(3-Fluorophenoxy)-3-(3-fluorophenyl)-1-propylamine] showed an inhibition at 0.1 µM [1] of 0.6% and an inhibition at 10 µM [1] of 3.1%.
NCCC(Oc1cccc(Cl)c1)c1cccc(F)c1 (centres unmarked) [Compound 120] gave an IC50 (NMDA receptor) of 74 nM.
In the case of COc1ccccc1OC(CCN)c1cccc(F)c1 (centres unmarked) [Compound 121], the IC50 (NMDA receptor) is reported as 670 nM, the inhibition at 0.1 µM [1] is reported as 8.5% and the inhibition at 10 µM [1] is reported as 84.3%. It also gave an inhibition at 0.1 µM ([2]; @ 100 nM (top number), Table I) of 33.6%, an inhibition at 10 µM [2, 4] of 94.9% and an inhibition at 0.1 µM ([3]; @ 100 nM (top number), Table I) of 1.8%. The inhibition at 10 µM [3, 4] was 91.3%.
In the case of NCCC(Oc1ccccc1F)c1cccc(F)c1 (centres unmarked) [Compound 122], the IC50 (NMDA receptor) is reported as 342 nM, the Ki [1] is reported as 62 nM and the Ki ([2]; Table I) is reported as 103 nM. The Ki ([3]; Table I) was 2800 nM.
With CNCCC(c1cccc(F)c1)c1cccc(OC)c1 (centres unmarked) [Compound 142] the IC50 (NMDA receptor) was 1540 nM.
For CNCCC(Oc1cccc(F)c1)c1cccc(F)c1 (centres unmarked) [Compound 145], the IC50 (NMDA receptor) was 626 nM, the inhibition at 0.1 µM [1] was 3.5% and the inhibition at 10 µM [1] was 81.1%. It also gave an inhibition at 0.1 µM ([2]; @ 100 nM (top number), Table I) of 16.6%, an inhibition at 10 µM [2, 4] of 99.4% and an inhibition at 0.1 µM ([3]; @ 100 nM (top number), Table I) of 0%. It also gave an inhibition at 10 µM [3, 4] of 87.4%.
NCCC(Oc1ccccc1)c1cccc(Cl)c1 (centres unmarked) [Compound 148] showed an IC50 (NMDA receptor) of 373 nM.
Molecule NCCC(Oc1cccc(Cl)c1)c1cccc(Cl)c1 (centres unmarked) [Compound 149] has an IC50 (NMDA receptor) of 150 nM.
For NCCC(Oc1cccc(F)c1)c1cccc(Cl)c1 (centres unmarked) [Compound 150], the IC50 (NMDA receptor) was 351 nM.
For NCCC1c2ccccc2CCc2ccccc21 [Compound 156, 5-(2-Aminoethyl)-5H-10,11-dihydrodibenzo [a, d] cycloheptene hydrochloride], the IC50 (NMDA receptor) was 90 nM, the Ki [1] was 1200 nM and the Ki ([2]; Table I) was 570 nM. It also gave a Ki ([3]; Table I) of over 10000 nM.
With Cc1ccccc1OC(CCN)c1ccccc1 (centres unmarked) [Compound 177] the IC50 (NMDA receptor) was 754 nM, the Ki [2] was 109 nM and the Ki ([3]; Table I) was over 10000 nM.
Molecule COc1ccccc1OC(CCN)c1ccccc1 (centres unmarked) [Compound 178] has an IC50 (NMDA receptor) of 1250 nM.
For Cc1ccccc1OC(CCN)c1cccc(F)c1 (centres unmarked) [Compound 181], the IC50 (NMDA receptor) was 632 nM, the inhibition at 0.1 µM [1] was 37.4% and the inhibition at 10 µM [1] was 74.2%. For the same molecule, the inhibition at 0.1 µM ([2]; @ 100 nM (top number), Table I) was 10.7%, the inhibition at 10 µM [2, 4] was 32% and the inhibition at 0.1 µM ([3]; @ 100 nM (top number), Table I) was 0%. The inhibition at 10 µM [3, 4] was 109%.
With NCCC1c2ccccc2Oc2ccccc21 [Compound 182] the IC50 (NMDA receptor) was 7050 nM.
NCCC1c2ccccc2Sc2ccccc21 [Compound 183] gave an IC50 (NMDA receptor) of 5010 nM.
Work on NCCC1c2ccccc2C=Cc2ccccc21 [Compound 184] yielded an IC50 (NMDA receptor) of 1510 nM.
NCC[C@@H](Oc1cccc(F)c1)c1ccccc1 [Compound 185, (R)-3-(3-Fluorophenoxy)-3-phenylpropylamine] gave a Ki [1] of 2400 nM and a Ki ([3]; Table I) of 1100 nM.
Work on NCC[C@H](Oc1cccc(F)c1)c1ccccc1 [Compound 186] yielded a Ki ([3]; Table I) of 3100 nM.
NCCC1c2ccccc2COc2ccccc21 (centres unmarked) [Compound 187] gave an IC50 (NMDA receptor) of 2010 nM.
For NCC[C@@H](Oc1cccc(F)c1)c1cccc(F)c1 [Compound 191], the IC50 (NMDA receptor) was 1300 nM, the Ki [1] was 134 nM and the Ki ([2]; Table I) was 638 nM. It also gave a Ki ([3]; Table I) of 1550 nM.
Molecule NCC[C@H](Oc1cccc(F)c1)c1cccc(F)c1 [Compound 192] has a Ki [1] of 14 nM, a Ki ([2]; Table I) of 325 nM and a Ki ([3]; Table I) of 1300 nM.
In the case of NCCC1c2cccc(F)c2CCc2c(F)cccc21 [Compound 193], the IC50 (NMDA receptor) is reported as over 1000 nM.
For NCCC1c2cc(F)ccc2CCc2c(F)cccc21 (centres unmarked) [Compound 194], the IC50 (NMDA receptor) was 371 nM.
NCCC1c2cc(F)ccc2CCc2ccc(F)cc21 [Compound 195] gave an IC50 (NMDA receptor) of 29 nM.
NCCC1c2ccccc2CCc2c(F)cccc21 (centres unmarked) [Compound 196] gave an IC50 (NMDA receptor) of 2240 nM.
With NCCC1c2ccccc2CCc2ccc(F)cc21 (centres unmarked) [Compound 197] the IC50 (NMDA receptor) was 53 nM, the inhibition at 0.1 µM [1] was 9.8% and the inhibition at 10 µM [1] was 58.1%. For the same molecule, the inhibition at 0.1 µM ([2]; @ 100 nM (top number), Table I) was 0%, the inhibition at 10 µM [2, 4] was 27.5% and the inhibition at 0.1 µM ([3]; @ 100 nM (top number), Table I) was 0%. For the same molecule, the inhibition at 10 µM [3, 4] was 83.5%.
In the case of Fc1ccc([C@@H]2CCNC[C@H]2COc2ccc3c(c2)OCO3)cc1 [Paroxetine, reference compound], the inhibition at 0.1 µM [3] is reported as under 20%.
